The text below walks through data of patent US4358448A, “N-substituted thiazolyl derivatives of oxy-imino-substituted cephalosporins useful as anti-bacterial agents” (Farmitalia Carlo Erba S.p.A., priority 1979, dated 1982).

By LD50 is commonly meant the dose at which mortality reaches 50%.

The test system of data set [1] is streptococci. The data set can be described thus: antibacterial activity against streptococci, relative to reference cephalosporin. The format is cell-based.
Data set [2] deals with most Gram-negative bacteria. Put plainly: antibacterial activity against most Gram-negative bacteria, relative to reference cephalosporins. In kind it is cell-based.
Data set [3] relates to beta-lactamase producers organisms, such as Klebsiella aerogenes 1082 E, Enterobacter cloacae P 99, Escherichia coli Tem. The data set can be described thus: antibacterial activity against beta-lactamase producers organisms. The format is cell-based. Conditions: in words.
Data set [4] has as its system clinical isolates of indole-positive Proteus. The data set can be described thus: antibacterial activity against clinical isolates of indole-positive Proteus relative to HR-756. The format is cell-based. The settings on record: in words.
The test system of data set [5] is Bacteroides fragilis VPI 9032. Put plainly: antibacterial activity against Bacteroides fragilis relative to Cefotaxime. In kind it is cell-based. Conditions: in words.
Data set [6] has as its system Escherichia coli G, Klebsiella pneumoniae ATCC 10031, Proteus mirabilis ATCC 9921, Escherichia coli Tem., Haemophilus influenzae, Salmonella typhi Watson and …. Put plainly: in vivo tests in infected mice. Conditions: in words.
Data set [7] can be described thus: approximate acute toxicity in the mouse, single intravenous administration. The settings on record: in vivo, single intravenous administrations of increasing doses, measured on the seventh day. From the text: The toxicity of the compounds of the invention is quite negligible and therefore they can be safely used in therapy.

`CO/N=C(\C(=O)N[C@@H]1C(=O)N2C(C(=O)O)=C(CSc3ccc4nnnn4n3)CS[C@H]12)c1csc(=N)n1O` [FCE 20635, 7β-[2-(2-imino-3-hydroxy-4-thiazolinyl)-2-methoxyimino-acetamido]-3-[(tetrazolo[1,5-b]pyridazin-6-yl)-thiomethyl]-3-cephem-4-carboxylic acid (syn-isomer)]: the “times more active than Cefazolin” value in data set [1] was “about 4 times”; in data set [2], “about 30 times”. The “times more active than Cefuroxime” value in data set [2] was “about 40 times”. The “activity against most beta-lactamase producers organisms” value in data set [3] is “high activity”. In addition, the “activity compared with HR-756” value in data set [4] was “more active than HR-756”. Also, the “activity compared with Cefotaxime” value in data set [5] is “at least as active as Cefotaxime”. For the same compound, the “activity in vivo tests” value in data set [6] is given as “high activity”. This compound gave an LD50 at 168 h in data set [7] of over 2000 mg/kg.
